Here are results for 32 compounds from patent publication US8058475B2, “Substituted cyclohexylmethyl compounds” (Gruenenthal GmbH, priority 2005, dated 2011).

The test deals with human μ-opiate receptor (Homo sapiens, UniProt P35372). Briefly: Affinity for the human μ-opiate receptor ([3H]-naloxone displacement, SPA, CHO-K1 membrane preparation). The following applies: for inhibition at 1 µM: read-out: μ-Opioid receptor, % inhibition [1 μM]; for Ki: read-out: μ-Opioid receptor, Ki. The format is binding.
Where [1] appears, read: 1 μM test substance, inhibition of specific [3H]-naloxone binding.

Each structure is given as a SMILES string. Where two headings read alike, the source gives them in different places.

In general, inhibition refers to how much of the control response was suppressed. What is called Ki is a dissociation constant, usually derived from enzyme kinetics or from competition with a known ligand.

Sequence of human μ-opiate receptor (P35372 whole entry): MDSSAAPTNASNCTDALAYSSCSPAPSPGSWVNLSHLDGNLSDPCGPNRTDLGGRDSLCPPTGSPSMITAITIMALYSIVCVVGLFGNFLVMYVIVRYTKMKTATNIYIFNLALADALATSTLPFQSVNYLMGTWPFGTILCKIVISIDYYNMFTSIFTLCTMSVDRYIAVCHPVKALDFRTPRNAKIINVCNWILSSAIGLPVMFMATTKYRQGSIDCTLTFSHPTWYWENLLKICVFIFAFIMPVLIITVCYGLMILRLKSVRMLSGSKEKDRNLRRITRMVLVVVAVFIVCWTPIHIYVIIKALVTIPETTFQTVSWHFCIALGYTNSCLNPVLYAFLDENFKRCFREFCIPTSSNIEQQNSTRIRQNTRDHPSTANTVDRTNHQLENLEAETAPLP

For the compound `CN(C)C(c1ccccc1)C1CCC(CNC(=O)c2cccnc2Sc2ccc(Cl)cc2)CC1` (stereo not drawn) [compound 374, 2-(4-chloro-phenylsulfanyl)-N-[4-(dimethylamino-phenyl-methyl)-cyclohexyl-methyl]-nicotinamide], the inhibition at 1 µM was 84%.

Turning to `CCC(C(=O)NC1CCC(C(c2cccc(F)c2)N(C)C)CC1)c1ccccc1` (stereo not drawn) [compound 273, N-{4-[dimethylamino-(3-fluoro-phenyl)-methyl]-cyclohexyl}-2-phenyl-butyramide], the inhibition at 1 µM was 75% and the Ki is 81 nM.

In the case of `CN(C)C(c1cccc(F)c1)C1CCC(CNC(=O)c2cc(Cl)cc(Cl)c2)CC1` (stereo not drawn) [compound 371, 3,5-dichloro-N-{4-[dimethylamino-(3-fluoro-phenyl)-methyl]-cyclohexylmethyl}-benzamide], the inhibition at 1 µM is 84% and the inhibition constant (Ki) turned out to be 130 nM.

Turning to `CN(C)C(c1cccc(F)c1)C1CCC(CNC(=O)Cc2ccccc2)CC1` (single isomer, unassigned) [compound 319, N-{4-[dimethylamino-(3-fluoro-phenyl)-methyl]-cyclohexylmethyl}-2-phenyl-acetamide], the inhibition at 1 µM is 95% and the Ki was determined as 15 nM.

With `CN(C)C(c1cccc(F)c1)C1CCC(NC(=O)c2c(F)cccc2F)CC1` (stereo not drawn) [compound 278, N-{4-[dimethylamino-(3-fluoro-phenyl)-methyl]-cyclohexyl}-2,6-difluoro-benzamide], the inhibition at 1 µM turned out to be 74% and the Ki was 86 nM.

In the case of `COc1c(C(=O)NCCC2CCC(C(c3ccc(F)cc3)N(C)C)CC2)csc1Cl` (stereo not drawn) [compound 475, 5-chloro-4-methoxy-thiophene-3-carboxylic acid (2-{4-[dimethylamino-(4-fluoro-phenyl)-methyl]-cyclohexyl}-ethyl)-amide], the inhibition at 1 µM was determined as 97% and the Ki was determined as 6.9 nM.

Take `CN(C)C(c1ccccc1)C1CCC(CCNC(=O)c2c(Cl)cccc2Cl)CC1` (stereo not drawn) [compound 413, 2,6-dichloro-N-{2-[4-(dimethylamino-phenyl-methyl)-cyclohexyl]-ethyl}-benzamide]: the inhibition at 1 µM was found to be 81% and the Ki amounted to 31 nM.

In the case of `COc1cccc(CC(=O)NCCC2CCC(C(c3cccc(F)c3)N(C)C)CC2)c1` (stereo not drawn) [compound 453, N-(2-{4-[dimethylamino-(3-fluoro-phenyl)-methyl]-cyclohexyl}-ethyl)-2-(3-methoxy-phenyl)-acetamide], the inhibition at 1 µM came out at 83% and the Ki is 43 nM.

For `Cc1ccc(C2(O)CCC(C(c3ccc(Cl)cc3)N(C)C)CC2)cc1` (stereo not drawn) [compound 165, 4-[(4-chloro-phenyl)-dimethylamino-methyl]-1-p-tolyl-cyclohexanol], under setting [1], the inhibition at 1 µM stood at 52%.

Take `CN(C)C(c1cccs1)C1CCC(CNC(=O)c2c(F)cccc2F)CC1` (stereo not drawn) [compound 313, N-[4-(dimethylamino-thiophen-2-yl-methyl)-cyclohexylmethyl]-2,6-difluoro-benzamide]: the inhibition at 1 µM was found to be 97% and the Ki stood at 35 nM.

As for `CN(C)C(c1ccccc1)C1CCC(CCNC(=O)C2(c3ccc(Cl)cc3)CCCC2)CC1` (stereo not drawn) [compound 449, 1-(4-chloro-phenyl)-cyclopentane-carboxylic acid {2-[4-(dimethylamino-phenyl-methyl)-cyclohexyl]-ethyl}-amide], the inhibition at 1 µM worked out at 88% and the Ki is 36 nM.

Turning to `CN(C)C(c1cccc(F)c1)C1CCC(CNC(=O)c2cccs2)CC1` (single isomer, unassigned) [compound 334, thiophene-2-carboxylic acid {4-[dimethylamino-(3-fluoro-phenyl)-methyl]-cyclohexylmethyl}-amide], the inhibition at 1 µM worked out at 92% and the Ki is 62 nM.

For `CN(C)C(c1ccccc1)C1CCC(CCNC(=O)c2cccc(Cl)c2)CC1` (single isomer, unassigned) [compound 397, 3-chloro-N-{2-[4-(dimethylamino-phenyl-methyl)-cyclohexyl]-ethyl}-benzamide], the inhibition at 1 µM was 97% and the Ki stood at 7.2 nM.

On to `Cc1oc(-c2ccc(Cl)cc2)cc1C(=O)NC1CCC(C(c2ccccc2)N(C)C)CC1` (stereo not drawn) [compound 232, 5-(4-chloro-phenyl)-2-methyl-furan-3-carboxylic acid [4-(dimethylamino-phenyl-methyl)-cyclohexyl]-amide], for which the inhibition at 1 µM worked out at 84% and the Ki stood at 74 nM.

On to `Cc1cc(C(=O)NCC2CCC(C(c3cccs3)N(C)C)CC2)n(C(C)(C)C)n1` (stereo not drawn) [compound 366, 2-tert-butyl-5-methyl-2H-pyrazole-3-carboxylic acid [4-(dimethylamino-thiophen-2-yl-methyl)-cyclohexylmethyl]-amide], for which the inhibition at 1 µM was determined as 85% and the Ki turned out to be 56 nM.

Consider `CCC(C(=O)NC1CCC(C(c2ccccc2)N(C)C)CC1)c1ccccc1` (single isomer, unassigned) [compound 250, N-[4-(dimethylamino-phenyl-methyl)-cyclohexyl]-2-phenyl-butyramide], for which the “μ-Opioid receptor, % inhibition [1 μM]” value is 81% and the Ki worked out at 36 nM.

For the compound `Cc1ccccc1C(=O)NCCC1CCC(C(c2ccccc2)N(C)C)CC1` (single isomer, unassigned) [compound 418, N-{2-[4-(dimethylamino-phenyl-methyl)-cyclohexyl]-ethyl}-2-methyl-benzamide], the “μ-Opioid receptor, % inhibition [1 μM]” value was 92% and the Ki was 43 nM.

With `Cc1cc(C(=O)NC2CCC(C(c3cccs3)N(C)C)CC2)n(C(C)(C)C)n1` (stereo not drawn) [compound 201, 2-tert-butyl-5-methyl-2H-pyrazole-3-carboxylic acid [4-(dimethylamino-thiophen-2-yl-methyl)-cyclohexyl]-amide], the inhibition at 1 µM was 94% and the Ki amounted to 16 nM.

For `COc1c(C(=O)NC2CCC(C(c3ccccc3)N(C)C)CC2)csc1Cl` (stereo not drawn) [compound 188, 5-chloro-4-methoxy-thiophene-3-carboxylic acid [4-(dimethylamino-phenyl-methyl)-cyclohexyl]-amide], the inhibition at 1 µM came to 100% and the Ki turned out to be 5.2 nM.

`CCC(C(=O)NCCC1CCC(C(c2cccs2)N(C)C)CC1)c1ccccc1` (stereo not drawn) [compound 456, N-{2-[4-(dimethylamino-thiophen-2-yl-methyl)-cyclohexyl]-ethyl}-2-phenyl-butyramide]: the inhibition at 1 µM was found to be 96% and the Ki came to 23 nM.

For `COc1cccc(CC2(O)CCC(C(c3ccc(Cl)cc3)N(C)C)CC2)c1` (stereo not drawn) [compound 173, 4-[(4-chloro-phenyl)-dimethylamino-methyl]-1-(3-methoxy-benzyl)-cyclohexanol], the inhibition at 1 µM under setting [1] was determined as 84%.

In the case of `CN(C)C(c1ccccc1)C1CCC(CCNC(=O)c2ccccc2Cl)CC1` (stereo not drawn) [compound 402, 2-chloro-N-{2-[4-(dimethylamino-phenyl-methyl)-cyclohexyl]-ethyl}-benzamide], the inhibition at 1 µM is 96% and the Ki was found to be 7.9 nM.

Take `CN(C)C(c1ccc(Cl)cc1)C1CCC(O)(CCc2ccccc2)CC1` (stereo not drawn) [compound 163, 4-[(4-chloro-phenyl)-dimethylamino-methyl]-1-phenethyl-cyclohexanol]: the inhibition at 1 µM under setting [1] is 81%.

As for `CN(C)C(c1ccc(F)cc1)C1CCC(CCNC(=O)c2csc(-c3ccccc3)n2)CC1` (stereo not drawn) [compound 464, 2-phenyl-thiazole-4-carboxylic acid (2-{4-[dimethylamino-(4-fluoro-phenyl)-methyl]-cyclohexyl}-ethyl)-amide], the inhibition at 1 µM turned out to be 92% and the Ki came to 75 nM.

As for `Cc1oc(-c2ccccc2)cc1C(=O)NCC1CCC(C(c2cccc(F)c2)N(C)C)CC1` (stereo not drawn) [compound 353, 2-methyl-5-phenyl-furan-3-carboxylic acid {4-[dimethylamino-(3-fluoro-phenyl)-methyl]-cyclohexylmethyl}-amide], the inhibition at 1 µM is 87% and the Ki is 96 nM.

Regarding `Cc1c(S(=O)(=O)c2ccc(Cl)cc2)csc1C(=O)NC1CCC(C(c2ccccc2)N(C)C)CC1` (stereo not drawn) [compound 233, 4-(4-chloro-benzenesulfonyl)-3-methyl-thiophene-2-carboxylic acid [4-(dimethylamino-phenyl-methyl)-cyclohexyl]-amide], the inhibition at 1 µM was 84% and the Ki came to 71 nM.

For `CN(C)C(c1cccs1)C1CCC(NC(=O)c2cccc(C#N)c2)CC1` (stereo not drawn) [compound 186, 3-cyano-N-[4-(dimethylamino-thiophen-2-yl-methyl)-cyclohexyl]-benzamide], the inhibition at 1 µM came to 100% and the Ki turned out to be 18 nM.

Consider `CN(C)C(c1ccccc1)C1CCC(CNC(=O)c2cc(Cl)cc(Cl)c2)CC1` (stereo not drawn) [compound 329, 3,5-dichloro-N-[4-(dimethylamino-phenyl-methyl)-cyclohexylmethyl]-benzamide], for which the inhibition at 1 µM was 94% and the Ki is 35 nM.

`COc1ccc(C(=O)NCCC2CCC(C(c3ccccc3)N(C)C)CC2)c(OC)c1` (stereo not drawn) [compound 478, N-{2-[4-(dimethylamino-phenyl-methyl)-cyclohexyl]-ethyl}-2,4-dimethoxy-benzamide]: the inhibition at 1 µM is 95% and the Ki stood at 27 nM.

In the case of `CN(C)C(c1ccccc1)C1CCC(CCNC(=O)c2cccnc2Sc2ccc(Cl)cc2)CC1` (single isomer, unassigned) [compound 470, 2-(4-chloro-phenylsulfanyl)-N-{2-[4-(dimethylamino-phenyl-methyl)-cyclohexyl]-ethyl}-nicotinamide], the inhibition at 1 µM was 91% and the Ki came out at 71 nM.

Turning to `CN(C)C(c1ccc(Cl)cc1)C1CCC(CCNC(=O)c2ccc(F)c(F)c2)CC1` (stereo not drawn) [compound 445, N-(2-{4-[(4-chloro-phenyl)-dimethylamino-methyl]-cyclohexyl}-ethyl)-3,4-difluoro-benzamide], the inhibition at 1 µM is 86% and the Ki turned out to be 69 nM.

For `CN(C)C(c1cccc(F)c1)C1CCC(NC(=O)c2ccc(Cl)c(Cl)c2)CC1` (stereo not drawn) [compound 209, 3,4-dichloro-N-{4-[dimethylamino-(3-fluoro-phenyl)-methyl]-cyclohexyl}-benzamide], the inhibition at 1 µM was 92% and the Ki was 47 nM.
